Assays:
Type in all cases: physicochemical
[1] = Solubility in water and aqueous buffers; conditions: in water and aqueous buffers at various pH values
[2] = In vitro dissolution from a tablet preparation (USP XXIII Paddle Method); conditions: drospirenone in micronized form; rapid dissolution defined as at least 70% over about 30 minutes from a 3 mg tablet in 900 ml of water at 37°C, 50 rpm
[3] = Chemical stability under acid and alkaline conditions

SMILES: C[C@]12CCC(=O)C=C1[C@@H]1C[C@@H]1[C@H]1[C@@H]3[C@@H]4C[C@@H]4[C@@]4(CCC(=O)O4)[C@@]3(C)CC[C@@H]12 [drospirenone, 6β,7β;15β;16β-dimethylene-3-oxo-17α-preg-4-ene-21,17-carbolactone]
- solubility [1]: sparingly soluble
- dissolution of the active compound from the composition in vitro [2]: rapid dissolution
- stability under acid conditions ([3]; acid conditions): rearranged to an inactive isomer
- stability under alkaline conditions ([3]; alkaline conditions): hydrolysed
